SMILES strings stand for the structures.

Test [1] concerns the target T1, E. coli GroEL/ES (Escherichia coli, UniProt P0A6F5). Briefly: Inhibition of Escherichia coli GroEL/GroES expressed in Escherichia coli DH5alpha/BL21 (DE3) assessed as inhibition of denatured MDH refolding preincubated for 10 mins followed by ATP addition measured after 2 hrs by fluorescence based assay.
Test [2] concerns the target T1, E. coli GroEL/ES. The test is described as follows: Inhibition of Escherichia coli GroEL/GroES-ATPase activity expressed in Escherichia coli DH5alpha/BL21 (DE3) assessed as inhibition of denatured MDH refolding preincubated for 10 mins followed by ATP addition measured after 2 hrs by fluorescence based assay.
A short description of test [3]: Inhibition of pig heart MDH using […] as substrate. Also on record: species or system Sus scrofa.

T1 sequence (P0A6F5 whole entry, looked up): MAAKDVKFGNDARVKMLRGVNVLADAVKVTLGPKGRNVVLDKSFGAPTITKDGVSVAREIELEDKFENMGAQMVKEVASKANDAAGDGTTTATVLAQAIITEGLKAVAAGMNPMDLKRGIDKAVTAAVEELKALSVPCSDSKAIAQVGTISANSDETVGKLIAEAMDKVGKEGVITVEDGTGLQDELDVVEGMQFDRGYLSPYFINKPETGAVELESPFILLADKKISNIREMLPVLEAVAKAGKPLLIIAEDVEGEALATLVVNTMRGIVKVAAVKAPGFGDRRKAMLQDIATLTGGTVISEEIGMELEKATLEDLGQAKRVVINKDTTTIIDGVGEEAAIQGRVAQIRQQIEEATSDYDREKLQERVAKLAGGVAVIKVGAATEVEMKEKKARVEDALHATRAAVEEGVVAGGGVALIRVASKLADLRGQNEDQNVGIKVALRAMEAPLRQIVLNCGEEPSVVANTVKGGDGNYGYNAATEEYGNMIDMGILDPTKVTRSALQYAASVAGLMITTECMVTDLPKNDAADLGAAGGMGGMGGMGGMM

In the case of `O=C(Nc1ccc2nc(-c3ccco3)c(-c3ccco3)nc2c1)N1CCCC1`, the IC50 on E. coli GroEL/ES [1] was 14 µM; on E. coli GroEL/ES [2], > 250 µM; in test [3] it was > 62.5 µM.
Regarding `COc1cc(/C=C2/C(=N)N3N=C(CC(C)C)SC3=NC2=O)ccc1OC(=O)c1ccc(F)cc1`, the IC50 is > 100 µM at E. coli GroEL/ES [1], > 250 µM at E. coli GroEL/ES [2] and > 62.5 µM in test [3].
As to `CCOc1ccc(N2C(=O)NC(=O)/C(=C/c3ccc(O)c(O)c3)C2=O)cc1`, the figures for the IC50 (on E. coli GroEL/ES [1]; on E. coli GroEL/ES [2]; in test [3]) were 24 µM, 217 µM and > 62.5 µM, respectively.
As to `O=C(CC1Nc2cccc3cccc(c23)NC1=O)Nc1cccc([N+](=O)[O-])c1` (stereo not given), the IC50 is 97 µM at E. coli GroEL/ES [1], 52 µM at E. coli GroEL/ES [2] and > 62.5 µM in test [3].
The matching figures for `O=C1/C(=C/c2ccc(O)c(O)c2)SC(=S)N1c1ccc(O)cc1`: 0.99 µM, 3.3 µM and > 62.5 µM.
Consider `CNC(=O)Oc1c(Br)cc2sc(=O)oc2c1Br`, for which the IC50 at E. coli GroEL/ES [1] was 35 µM; on E. coli GroEL/ES [2] it was 236 µM; in test [3], > 62.5 µM.
In the same order, the values of `Cc1ccc(/C=C2/SC(=S)N(c3ccc(C(=O)O)c(O)c3)C2=O)o1` are 6.1 µM, 48 µM and > 62.5 µM.
In the same order, the values of `Cc1ccc(C)n1-c1ccc(O)c(C(=O)O)c1` are 0.62 µM, > 250 µM and > 62.5 µM.
Regarding `Cn1c(=O)c(C(=O)Nc2ccncc2)c(O)c2ccccc21`, the values for the IC50 (on E. coli GroEL/ES [1]; at E. coli GroEL/ES [2]; in test [3]) were 7.3 µM, > 250 µM and > 62.5 µM, respectively.
The matching figures for `O=C(/C=C/c1ccco1)c1ccc(NC(=O)c2cccs2)cc1`: 17 µM, 157 µM and > 62.5 µM.
The matching figures for `Cc1ccc(S(=O)(=O)Nc2ccc(-c3nc4ccc(NS(=O)(=O)c5ccc(C)cc5)cc4[nH]3)cc2)cc1`: 0.11 µM, 0.06 µM and > 62.5 µM.
On to `O=c1[nH]nc2cc(O)c3ccccc3n12`, for which the IC50 at E. coli GroEL/ES [1] is 11 µM; on E. coli GroEL/ES [2] it was > 250 µM; in test [3], > 62.5 µM.
On to `CN(C)c1ccc(/C=C2/C(=O)NC(=S)N(Cc3ccco3)C2=O)cc1`, for which the IC50 on E. coli GroEL/ES [1] was 5.9 µM; on E. coli GroEL/ES [2] it was 169 µM; in test [3], > 62.5 µM.
On to `O=C(Nc1ccc(Sc2nc3ccccc3s2)c(Cl)c1)c1cc(Br)cc(Br)c1O`, for which the IC50 at E. coli GroEL/ES [1] turned out to be 1.7 µM; on E. coli GroEL/ES [2], 13 µM; in test [3], 5.5 µM.
For `O=C(O)c1cccc2c1NC(c1ccccc1F)C1CC=CC21` (stereo not given), the IC50 is 9.1 µM at E. coli GroEL/ES [1], 95 µM on E. coli GroEL/ES [2] and > 62.5 µM in test [3].
Regarding `O=C(O)c1cccc2c1NC(c1cccc(Br)c1)C1CC=CC21` (stereo not given), the IC50 is 2.7 µM at E. coli GroEL/ES [1], 44 µM at E. coli GroEL/ES [2] and 50 µM in test [3].
In the same order, the values of `O=C(O)c1ccc(-c2nc(-c3ccc(-c4ccc(-c5nc(-c6ccc(C(=O)O)cc6)[nH]c5-c5ccccc5)cc4)cc3)c(-c3ccccc3)[nH]2)cc1` are 0.44 µM, 25 µM and 57 µM.
As to `Cc1ccc(-c2ccc(NC(=O)/C=C/c3ccco3)cc2)o1`, the IC50 on E. coli GroEL/ES [1] is > 100 µM; on E. coli GroEL/ES [2], > 250 µM; in test [3], > 62.5 µM.
The matching figures for `COc1cccc(/C=C2/SC(=S)N(CCC(=O)Nc3ccc(O)cc3)C2=O)c1`: 33 µM, > 250 µM and > 62.5 µM.
In the same order, the values of `O=C(O)C1Nc2ccc(Cl)cc2C2C=CCC12` (stereo not given) are 2.7 µM, 68 µM and > 62.5 µM.
On to `O=C(NCCO)Nc1ccc2nc(-c3ccco3)c(-c3ccco3)nc2c1`, for which the IC50 at E. coli GroEL/ES [1] was 23 µM; on E. coli GroEL/ES [2] it was > 250 µM; in test [3], > 62.5 µM.
The matching figures for `O=C1NC(=S)N(Cc2ccco2)C(=O)/C1=C\c1ccc(-c2ccc([N+](=O)[O-])cc2)o1`: 0.7 µM, 150 µM and 19 µM.
Consider `O=C1NC(=S)N(c2ccc(F)cc2)C(=O)/C1=C/c1ccco1`, for which the IC50 on E. coli GroEL/ES [1] was found to be 1.2 µM; at E. coli GroEL/ES [2], 25 µM; in test [3] it was 20 µM.
In the same order, the values of `Nc1nnc(SCC(=O)c2ccc(-c3ccccc3)cc2)s1` are > 100 µM, > 250 µM and > 62.5 µM.
In the same order, the values of `O=c1c([N+](=O)[O-])c(Cl)c2ccccc2n1Cc1ccccc1` are 8.8 µM, > 250 µM and > 62.5 µM.
Regarding `O=C(/C=C/c1ccc([N+](=O)[O-])cc1)c1ccc(O)c(O)c1`, the IC50 was 2.4 µM at E. coli GroEL/ES [1], 71 µM at E. coli GroEL/ES [2] and > 62.5 µM in test [3].
Consider `CNC(=O)Nc1ccc2nc(-c3ccco3)c(-c3ccco3)nc2c1`, for which the figures for the IC50 (on E. coli GroEL/ES [1]; on E. coli GroEL/ES [2]; in test [3]) were 5.4 µM, > 250 µM and > 62.5 µM, respectively.
On to `COC(=O)c1ccc(-c2ccc(/C=C3/SC(=S)NC3=O)o2)cc1`, for which the IC50 on E. coli GroEL/ES [1] was 8.4 µM; at E. coli GroEL/ES [2], 131 µM; in test [3], > 62.5 µM.
For the compound `Nc1ccc(Nc2nc(-c3ccc(O)c(O)c3)cs2)cc1`, the IC50 at E. coli GroEL/ES [1] is 5.9 µM; on E. coli GroEL/ES [2], 23 µM; in test [3], > 62.5 µM.
The matching figures for `Oc1ccc(NCn2nnc3ccccc32)cc1`: 55 µM, 130 µM and > 62.5 µM.
As to `COc1ccc(C(=O)N/N=C/c2ccc(O)c3ncccc23)cc1`, the IC50 on E. coli GroEL/ES [1] is 70 µM; at E. coli GroEL/ES [2], > 250 µM; in test [3], > 62.5 µM.
In the same order, the values of `O=C(/C=C/c1cccc([N+](=O)[O-])c1)c1ccc(NC(=O)c2ccco2)cc1` are 1.8 µM, > 250 µM and > 62.5 µM.
For the compound `O=c1/c(=C/c2ccc(O)c(O)c2)sc2nc3ccccc3n12`, the values for the IC50 (at E. coli GroEL/ES [1]; at E. coli GroEL/ES [2]; in test [3]) were 1.3 µM, 9.8 µM and > 62.5 µM, respectively.
Turning to `O=C(Nc1cc([N+](=O)[O-])ccc1O)c1ccc2c(c1)C(=O)N(Cc1ccccc1)C2=O`, the IC50 at E. coli GroEL/ES [1] was 52 µM; at E. coli GroEL/ES [2] it was > 250 µM; in test [3], > 62.5 µM.
As to `CC(=O)c1cc2c(cc1NC(=O)c1ccccc1Br)OCCO2`, the IC50 at E. coli GroEL/ES [1] was > 100 µM; on E. coli GroEL/ES [2], > 250 µM; in test [3], > 62.5 µM.

Source of the values: ChEMBL document CHEMBL3112458, “A biochemical screen for GroEL/GroES inhibitors” (Bioorg Med Chem Lett, 2014).
